We go through 20 compounds from patent US20240287021A1, “QUATERNARY AMMONIUM SALT COMPOUND, PREPARATION METHOD THEREFOR AND USE THEREOF” (YICHANG HUMANWELL PHARMACEUTICAL CO., LTD., priority 2021, published 2024).

The structures appear in SMILES notation. Counter-ions that a name gives are not always drawn.

Assay [1] has as its system sciatic nerve. In words: Local anesthetic effect of nerve block (sciatic nerve block model, hot plate test). The format is in vivo. The note with it: rat, single dose 5 mL/Kg through right sciatic nerve, example compounds 6 mg/mL (8.6-10.1 mmol/L), hot plate 50°C; for Duration: levobupivacaine hydrochloride 2 mg/mL, MPE at least 50%. How it is done: Three groups of fully acclimatized rats, one in each group, were given to the example compounds and levobupivacaine hydrochloride positive control, respectively.
Solution preparation: 2 mg/mL levobupivacaine hydrochloride injection: 2.670 mL of 7.5 mg/mL levobupivacaine hydrochloride injection (batch number: 92S0702) was pipetted by a pipette and added into a 10 mL volumetric flask, 0.9% NaCl solution was added until the concave liquid level was flush with the scale line, and the volumetric flask was turned upside down to mix the solution well to prepare 2 mg/ml levobupivacaine hydrochloride injection. 6 mg/mL (the molar concentration calculated from the molecular weight of the example compound ranged from 8.6 to 10.1 mmol/L) example compound solution: 19.80 mg of example compound was accurately weighed and added with 3.3 mL of 0.9% NaCl solution to prepare 6 mg/mL example compound solution.
Each rat was administered or control injected at 5 mL/Kg, in a single dose through right sciatic nerve, and thereafter, the rat was placed on a hot plate of a preheated 50±0.1° C. smart hot plate apparatus. The time required for the occurrence of the behavioral phenomena of avoiding thermal stimuli, such as obvious foot lifting and foot licking on the administered side of the rat was recorded, as the hot incubation period. The allowable maximum value of the hot incubation period was controlled at 60 s. If the rat still has no foot licking after 60 s, the hind foot of the rat was lifted manually to avoid tissue injury or hyperalgesia, and 60 s was taken as the hot incubation period of the rat. After each measurement, the hot plate was wiped in time to remove possible urine and feces, and was dried for subsequent testing.
The results of the hot incubation period were expressed with maximum proportionality effect (MPE) and calculated using the following equation:
[formula] • wherein B represents the basic hot incubation period of rats, P represents the allowable maximum hot incubation period, and C represents the hot incubation period at the detection time point.
It was specified that the tested time below 50% of the maximum proportionality effect was determined to be invalid, and the test was stopped if two consecutive tests were both below 50% of the maximum proportionality effect.
For orientation: Thermal pain tests record how soon the animal reacts.

Assay [2] relates to rat subcutaneous infiltration models. In words: Subcutaneous infiltration local anesthetic effect (Von Frey stinging stimulus on back skin). The format is in vivo. The conditions noted are these: SD rats. Here is the method: SD rats (half male and half female) with a body weight of 190-210 grams were shaved and sterilized on the back, then a circle with a diameter of about 1.5 cm was drawn on one side of the bare back, and 0.5 mL of a drug-containing solution was subcutaneously injected into the skin in the center: normal saline was used as the solvent, 2 mg/mL levobupivacaine hydrochloride, 9 compounds of the present application were selected, at a concentration of 6 mg/mL (the equivalent molar concentration ranged from 8.6 to 10.1 mmol/L according to the corresponding molecular weights of the example compounds), with 10 rats in each group. Von Frey fiber filaments with 100 g strength were bound to a needle for topical skin stimulation. 1 min after drug injection, response of rats to stinging stimulus was tested. The test sites were six different points of the circle of the administration site, and whether behaviors such as skin contraction and avoidance occurred after stimulus was observed and recorded. Three points in the center of the circle and three points on the periphery of the circle were stimulated separately, and the number of occurrences of skin contraction and avoidance behavior was recorded as N/6. In terms of judgment, if there were 4 or more occurrences of avoidance and skin contraction behaviors, it was considered that the drug was ineffective; if there was a reaction on the periphery (≤3) and no reaction (≥1) in the center, it was considered that the drug was still effective; and if there was a reaction only at the points in the center, it was considered that the drug was ineffective. Each compound was tested with 10 rats.
Since the local anesthesia time longer than 72 hours may cause irreversible nerve injury, we subsequently halved (3 mg/mL) the dose of the compounds with the duration of action greater than 72 hours and then conducted an activity test to determine whether the local anesthesia effect could be restored in the skin infiltration models.

[3] abbreviates: 0.5 mL subcutaneous on back, compounds 6 mg/mL (8.6-10.1 mmol/L).
Where [4] appears, read: 0.5 mL subcutaneous on back, compounds 6 mg/mL (8.6-10.1 mmol/L), levobupivacaine hydrochloride 2 mg/mL.
The mark [5] stands for this setting: subcutaneous on back, compounds 3 mg/mL (4.4-5.1 mmol/L).

In assay [1], `CCCC[N+]1(CCCCN2CCCCC2C(=O)Nc2ccc(C(F)(F)F)cc2)CCC[C@@H]1C(=O)Nc1c(C)cccc1C` (stereo partly drawn) [Compound 20] gave a Duration of 12 to 24 h and an Onset time of 1 min.

In assay [1], `CCCC[N+]1(CCCCCN2CCCCC2C(=O)Nc2ccc(F)cc2)CCCCC1C(=O)Nc1c(C)cccc1C` (stereo not drawn) [Compound 3] returned a Duration of 18 h and an Onset time of 1 min.

In assay [1], `CCCC[N+]1(CCCCN2CCCCC2C(=O)NC2CCCCC2)CCCCC1C(=O)Nc1c(C)cccc1C` (stereo not drawn) [Compound 9] showed a Duration of 24 h and an Onset time of 1 min.

Regarding `CCCC[N+]1(CCCCCN2CCCCC2C(=O)Nc2c(C)cccc2C)CCC[C@@H]1C(=O)Nc1c(C)cccc1C` (stereo partly drawn) [Compound 22], the Duration was 24 to 48 h in assay [1] and 60 h in assay [2] (setting [4]). The Onset time in assay [1] and in assay [2] (setting [3]) was 1 min in each case.

For `CCCC[N+]1(CCCCCN2CCCCC2C(=O)Nc2ccccc2)CCCCC1C(=O)Nc1c(C)cccc1C` (stereo not drawn) [Compound 2], in assay [1], the Duration amounted to 15 h and the Onset time is 1 min.

Turning to `CCCC[N+]1(CCCCN2CCCCC2C(=O)Nc2ccc(F)cc2)CCCCC1C(=O)Nc1c(C)cccc1C` (stereo not drawn) [Compound 7], the Duration was 30 h in assay [1] and 52 h in assay [2] (setting [4]). The results for the Onset time in assay [1] and in assay [2] (setting [3]) were 1 min and 2 min, respectively.

As for `CCCC[N+]1(CCCCN2CCCCC2C(=O)Nc2ccc(C)cc2)CCC[C@@H]1C(=O)Nc1c(C)cccc1C` (stereo partly drawn) [Compound 18], in assay [1], the Duration turned out to be 20 h and the Onset time was 1 min.

As for `CCC[N+]1(CCCCCN2CCCCC2C(=O)Nc2ccc(C)cc2)CCCCC1C(=O)Nc1c(C)cccc1C` (stereo not drawn) [Compound 12], the Duration in assay [1] is 48 h; in assay [2] (setting [4]) it was 72 to 96 h; in assay [2] (setting [5]) it was 60 h. The Onset time in assay [1], in assay [2] (setting [3]) and in assay [2] (setting [5]) was 1 min throughout.

`CCCC[N+]1(CCCCCN2CCCCC2C(=O)Nc2ccc(C)cc2)CCCCC1C(=O)Nc1c(C)cccc1C` (stereo not drawn) [Compound 4]: the Duration in assay [1] is 48 h; in assay [2] (setting [4]), 72 to 96 h; in assay [2] (setting [5]), 56 h. Further, the Onset time in assay [1], in assay [2] (setting [3]) and in assay [2] (setting [5]) was 1 min in each case.

In assay [1], `CCCC[N+]1(CCCCN2CCCCC2C(=O)Nc2c(C)cccc2C)CCC[C@@H]1C(=O)Nc1c(C)cccc1C` (stereo partly drawn) [Compound 17] displayed a Duration of 12 to 24 h and an Onset time of 1 min.

As to `CCCC[N+]1(CCCCN2CCCCC2C(=O)Nc2c(C)cccc2C)CCC[C@@H]1C(=O)Nc1c(C)cc(C)cc1C` (stereo partly drawn) [Compound 27], in assay [1], the Duration was 12 to 24 h and the Onset time stood at 1 min.

For the compound `CCCC[N+]1(CCCCCN2CCCCC2C(=O)Nc2ccc(F)cc2)CCC[C@@H]1C(=O)Nc1c(C)cc(C)cc1C` (stereo partly drawn) [Compound 32], in assay [1], the Duration was in the range of 12 to 24 h and the Onset time is on record as 1 min.

`CCCC[N+]1(CCCCN2CCCCC2C(=O)Nc2ccc(F)cc2)CCC[C@@H]1C(=O)Nc1c(C)cccc1C` (stereo partly drawn) [Compound 21]: the Duration is 24 to 48 h in assay [1] and 57 h in assay [2] (setting [4]). In addition, the Onset time in assay [1] and in assay [2] (setting [3]) was 1 min in each case.

Turning to `CCCC[N+]1(CCCCCN2CCCCC2C(=O)Nc2c(C)cccc2C)CCCCC1C(=O)Nc1c(C)cccc1C` (stereo not drawn) [Compound 1], the Duration came to 24 h in assay [1] and 55 h in assay [2] (setting [4]). Besides, the Onset time in assay [1] and in assay [2] (setting [3]) was 1 min throughout.

For the compound `CCC[N+]1(CCCCCN2CCCCC2C(=O)NC2CCCCC2)CCCCC1C(=O)Nc1c(C)cccc1C` (stereo not drawn) [Compound 11], in assay [1], the Duration stood at 11 h and the Onset time is recorded as 1 min.

As for `CCCCN1CCCC[C@H]1C(=O)Nc1c(C)cccc1C` [Levobupivacaine hydrochloride, reference compound], the Duration in assay [1] was 3 h; in assay [2] (setting [4]), 4 h; in assay [2] (setting [5]), 3 h.

In assay [1], `CCCC[N+]1(CCCCN2CCCCC2C(=O)Nc2ccc(C)cc2)CCC[C@@H]1C(=O)Nc1c(C)cc(C)cc1C` (stereo partly drawn) [Compound 28] had a Duration of 12 to 24 h and an Onset time of 1 min.

Take `CCCC[N+]1(CCCCN2CCCCC2C(=O)Nc2ccccc2)CCCCC1C(=O)Nc1c(C)cccc1C` (stereo not drawn) [Compound 8]: the results for the Duration in assay [1], in assay [2] (setting [4]) and in assay [2] (setting [5]) were 48 h, 72 to 96 h and 52 h, respectively. Also, the Onset time in assay [1], in assay [2] (setting [3]) and in assay [2] (setting [5]) was 1 min throughout.

In assay [1], `CCCC[N+]1(CCCCCN2CCCCC2C(=O)NC2CCCCC2)CCCCC1C(=O)Nc1c(C)cccc1C` (stereo not drawn) [Compound 6] gave a Duration of 12 h and an Onset time of 1 min.

As to `CCCC[N+]1(CCCCN2CCCCC2C(=O)Nc2ccc(F)cc2)CCC[C@@H]1C(=O)Nc1c(C)cc(C)cc1C` (stereo partly drawn) [Compound 29], the Duration in assay [1] is 24 to 48 h; in assay [2] (setting [4]), 50 h. For the same compound, the Onset time in assay [1] and in assay [2] (setting [3]) was 1 min throughout.
